Test results from article PMC4143601 (Cancer Chemotherapy and Pharmacology, 2014).
“Also recorded” adds a separate entry of the source. Read-outs that look alike come from different tables or passages of the source.

What was measured:
advanced solid tumors = assay: Tumor response, best overall response (RECIST version 1.0); type: in vivo, human (Japanese patients)
Method: (§1) The starting dose was 8 mg/m^2, and treatment cycles were 28 days. Intra-patient dose escalation was not permitted. An adaptive Bayesian logistic regression model (BLRM), guided by the escalation with overdose control (EWOC) principle, was used to guide dose escalations. The EWOC principle mandates the potential doses recommended for the next cohort and the estimated MTD have less than 25 % posterior probability of DLT in the excessive toxicity interval (33, 100 %). […] The occurrence of DLTs was evaluated during Cycle 1. A minimum of three patients were enrolled in a cohort, and the estimated MTD was continuously updated using the BLRM, and a minimum of six patients were planned to be enrolled at the MTD level. […] A minimum of 15 patients were required for the BLRM model to determine the MTD. […] Doses were individually adjusted according to body surface area measured at baseline.
(§2) Toxicity was graded according to the National Cancer Institute Common Toxicity Criteria version 3.0. […] Tumor response was assessed by computed tomography or magnetic resonance imaging, and using Response Evaluation Criteria in Solid Tumors version 1.0 for efficacy evaluations.

[1] = Method: Inclusion criteria included Eastern Cooperative Oncology Group performance status ≤2 and life expectancy ≥12 weeks.
as §1, §2
The DDS was used for the BLRM analyses in the determination of MTD.

[2] = Pharmacokinetics of AUY922 and its glucuronide metabolite BJP762 in blood (LC-MS/MS, non-compartmental); type: in vivo, human (Japanese patients with advanced solid tumors); settings: for half-life / Tmax / AUC(0-inf) / AUC(0-t) / Cmax / clearance / Vd: human; for half-life / Tmax: blood; for Tmax: read-out: T max [median (range)]; for AUC(0-inf) / AUC(0-t) / Cmax / clearance / Vd: whole blood; for Vd: read-out: Vz
Method: Intra-patient dose escalation was not permitted. […] The occurrence of DLTs was evaluated during Cycle 1.

CCNC(=O)c1noc(-c2cc(C(C)C)c(O)cc2O)c1-c1ccc(CN2CCOCC2)cc1 [AUY922, 5-[2,4-dihydroxy-5-isopropyl-phenyl]-N-ethyl-4-[4-(morpholinomethyl)phenyl]isoxazole-3-carboxamide]
Best overall response: Complete response (advanced solid tumors; 8 mg/m^2 (n = 3)): 0 n | Best overall response: Partial response (advanced solid tumors; 8 mg/m^2 (n = 3)): 0 n | Best overall response: Progressive disease (advanced solid tumors; 8 mg/m^2 (n = 3)): 2 n | Best overall response: Stable disease (advanced solid tumors; 8 mg/m^2 (n = 3)): 1 n | Best overall response: Unknown (advanced solid tumors; 8 mg/m^2 (n = 3)): 0 n | Disease control rate (CR + PR + SD) (advanced solid tumors; 8 mg/m^2 (n = 3)): 1 n | Overall response rate (CR + PR) (advanced solid tumors; 8 mg/m^2 (n = 3)): 0 n | Best overall response: Complete response (advanced solid tumors; 16 mg/m^2 (n = 3)): 0 n | Best overall response: Partial response (advanced solid tumors; 16 mg/m^2 (n = 3)): 0 n | Best overall response: Progressive disease (advanced solid tumors; 16 mg/m^2 (n = 3)): 2 n | Best overall response: Stable disease (advanced solid tumors; 16 mg/m^2 (n = 3)): 1 n | Best overall response: Unknown (advanced solid tumors; 16 mg/m^2 (n = 3)): 0 n | Disease control rate (CR + PR + SD) (advanced solid tumors; 16 mg/m^2 (n = 3)): 1 n | Overall response rate (CR + PR) (advanced solid tumors; 16 mg/m^2 (n = 3)): 0 n | Best overall response: Complete response (advanced solid tumors; 22 mg/m^2 (n = 3)): 0 n | Best overall response: Partial response (advanced solid tumors; 22 mg/m^2 (n = 3)): 0 n | Best overall response: Progressive disease (advanced solid tumors; 22 mg/m^2 (n = 3)): 3 n | Best overall response: Stable disease (advanced solid tumors; 22 mg/m^2 (n = 3)): 0 n | Best overall response: Unknown (advanced solid tumors; 22 mg/m^2 (n = 3)): 0 n | Disease control rate (CR + PR + SD) (advanced solid tumors; 22 mg/m^2 (n = 3)): 0 n | Overall response rate (CR + PR) (advanced solid tumors; 22 mg/m^2 (n = 3)): 0 n | Best overall response: Complete response (advanced solid tumors; 28 mg/m^2 (n = 5)): 0 n | Best overall response: Partial response (advanced solid tumors; 28 mg/m^2 (n = 5)): 0 n | Best overall response: Progressive disease (advanced solid tumors; 28 mg/m^2 (n = 5)): 4 n | Best overall response: Stable disease (advanced solid tumors; 28 mg/m^2 (n = 5)): 1 n | Best overall response: Unknown (advanced solid tumors; 28 mg/m^2 (n = 5)): 0 n | Disease control rate (CR + PR + SD) (advanced solid tumors; 28 mg/m^2 (n = 5)): 1 n | Overall response rate (CR + PR) (advanced solid tumors; 28 mg/m^2 (n = 5)): 0 n | Best overall response: Complete response (advanced solid tumors; 40 mg/m^2 (n = 3)): 0 n | Best overall response: Partial response (advanced solid tumors; 40 mg/m^2 (n = 3)): 0 n | Best overall response: Progressive disease (advanced solid tumors; 40 mg/m^2 (n = 3)): 2 n | Best overall response: Stable disease (advanced solid tumors; 40 mg/m^2 (n = 3)): 1 n | Best overall response: Unknown (advanced solid tumors; 40 mg/m^2 (n = 3)): 0 n | Disease control rate (CR + PR + SD) (advanced solid tumors; 40 mg/m^2 (n = 3)): 1 n | Overall response rate (CR + PR) (advanced solid tumors; 40 mg/m^2 (n = 3)): 0 n | Best overall response: Complete response (advanced solid tumors; 54 mg/m^2 (n = 6)): 0 n | Best overall response: Partial response (advanced solid tumors; 54 mg/m^2 (n = 6)): 1 n | Best overall response: Progressive disease (advanced solid tumors; 54 mg/m^2 (n = 6)): 3 n | Best overall response: Stable disease (advanced solid tumors; 54 mg/m^2 (n = 6)): 1 n | Best overall response: Unknown (advanced solid tumors; 54 mg/m^2 (n = 6)): 1 n | Disease control rate (CR + PR + SD) (advanced solid tumors; 54 mg/m^2 (n = 6)): 2 n | Overall response rate (CR + PR) (advanced solid tumors; 54 mg/m^2 (n = 6)): 1 n | Best overall response: Complete response (advanced solid tumors; 70 mg/m^2 (n = 8)): 0 n | Best overall response: Partial response (advanced solid tumors; 70 mg/m^2 (n = 8)): 0 n | Best overall response: Progressive disease (advanced solid tumors; 70 mg/m^2 (n = 8)): 3 n | Best overall response: Stable disease (advanced solid tumors; 70 mg/m^2 (n = 8)): 5 n | Best overall response: Unknown (advanced solid tumors; 70 mg/m^2 (n = 8)): 0 n | Disease control rate (CR + PR + SD) (advanced solid tumors; 70 mg/m^2 (n = 8)): 5 n | Overall response rate (CR + PR) (advanced solid tumors; 70 mg/m^2 (n = 8)): 0 n | Patients with best overall response of stable disease (advanced solid tumors; 70-mg/m^2 cohort, five out of the eight patients): 63% | Best overall response: Complete response (advanced solid tumors; Total, all doses (N = 31)): 0 n (%) | Best overall response: Partial response (advanced solid tumors; Total, all doses (N = 31)): 1 (3) n (%) | Best overall response: Progressive disease (advanced solid tumors; Total, all doses (N = 31)): 19 (61) n (%) | Best overall response: Stable disease (advanced solid tumors; Total, all doses (N = 31)): 10 (32) n (%) | Best overall response: Unknown (advanced solid tumors; Total, all doses (N = 31)): 1 (3) n (%) | Disease control rate (CR + PR + SD) (advanced solid tumors; Total, all doses (N = 31)): 11 (36) n (%) | Overall response rate (CR + PR) (advanced solid tumors; Total, all doses (N = 31)): 1 (3) n (%) | Disease control rate (DCR; PR + SD) (advanced solid tumors; across all dose levels): 36% | Complete response (advanced solid tumors; all doses): no patients achieved a complete response | Patients with confirmed partial response (advanced solid tumors; all doses (N = 31), one patient): 3% | Patients with best overall response of stable disease (advanced solid tumors; all doses (N = 31), ten patients, SD lasting ≥8 weeks): 32% | Duration of confirmed partial response (advanced solid tumors; one patient, rectal carcinoid tumor with lung metastatic lesions, 54 mg/m^2): > 7 months | Maximum tolerated dose (MTD) ([1]; IV once-weekly, 8–70 mg/m^2 tested): No MTD was determined; also recorded: the MTD was not determined; also recorded: The MTD was not established | Diarrhea, AE regardless of relationship to study drug ([1]; human, in vivo): 65% | Fatigue, AE regardless of relationship to study drug ([1]; human, in vivo): 29% | Nausea, AE regardless of relationship to study drug ([1]; human, in vivo): 29% | Night blindness, AE regardless of relationship to study drug ([1]; human, in vivo): 42% | Patients with AEs requiring dose modification or interruption ([1]; human, in vivo): 48% | Patients with serious AEs (SAEs) ([1]; human, in vivo): 26% | Patients who experienced DLTs ([1]; human, in vivo, 28 days): 3.6% | Recommended Phase II dose (RP2D) ([1]; human, in vivo, iv): 70 mg/m^2 | Patients discontinued as a result of AEs related to study drug ([1]; in vivo): two patients | Patients with SAEs considered to be related to the study drug ([1]; in vivo): two patients | Dose proportionality of C max in blood ([2]; entire dose range 8–70 mg/m^2): generally increased in a dose-proportional manner; also recorded: increased generally in a dose-proportional manner | half-life ([2]; intravenous, 8 mg/m2): 2.67 days | half-life ([2]; iv, 28 mg/m2): 4.11 ± 0.958 days | Tmax ([2]; iv, 28 mg/m2): 30 min | half-life ([2]; iv, 40 mg/m2): 5.12 ± 1.7 days | Tmax ([2]; iv, 40 mg/m2): 63 min | half-life ([2]; iv, 54 mg/m2): 5 ± 1.19 days | Tmax ([2]; iv, 54 mg/m2): 45.6 min | half-life ([2]; iv, 70 mg/m2): 5.29 ± 0.783 days | Tmax ([2]; iv, 70 mg/m2): 61.2 min | AUC(0-inf) ([2]; iv, 28 mg/m2): 9550 ng·h/mL | AUC(0-t) ([2]; iv, 28 mg/m2): 6810 ng·h/mL | Cmax ([2]; iv, 28 mg/m2): 457 ± 101 ng/mL | clearance ([2]; iv, 28 mg/m2): 79.8 mL/min | Vd ([2]; iv, 28 mg/m2): 646 ± 111 L | AUC(0-inf) ([2]; iv, 40 mg/m2): 11400 ng·h/mL | AUC(0-t) ([2]; iv, 40 mg/m2): 6960 ng·h/mL | Cmax ([2]; iv, 40 mg/m2): 710 ± 42 ng/mL | clearance ([2]; iv, 40 mg/m2): 95.7 mL/min | Vd ([2]; iv, 40 mg/m2): 980 ± 132 L | AUC(0-inf) ([2]; iv, 54 mg/m2): 12300 ng·h/mL | AUC(0-t) ([2]; iv, 54 mg/m2): 8880 ng·h/mL | Cmax ([2]; iv, 54 mg/m2): 1050 ng/mL | clearance ([2]; iv, 54 mg/m2): 121 mL/min | Vd ([2]; iv, 54 mg/m2): 1190 L | AUC(0-inf) ([2]; iv, 70 mg/m2): 12600 ng·h/mL | AUC(0-t) ([2]; iv, 70 mg/m2): 8540 ng·h/mL | Cmax ([2]; iv, 70 mg/m2): 1100 ng/mL | clearance ([2]; iv, 70 mg/m2): 143 mL/min | Vd ([2]; iv, 70 mg/m2): 1570 L | Dose dependence of AUClast in blood ([2]; increased with dose from 8 to 28 mg/m^2): saturated at higher dose levels; also recorded: saturated at higher doses
